Legend:
human HIPK2 = target: T1, human HIPK2 (Homo sapiens, UniProt Q9H2X6); experiment: HIPK2 enzyme assay (ADP-Glo); type: biochemical; conditions: ADP-Glo, ATP 5 μM; read-out: HIPK2 IC50
T1 construct: Recombinant human HIPK2 (1-640); GST (N); purchased SignalChem H04-11BG; host or cells: Sf9 insect cells
Description: The ability of compounds to inhibit human HIPK2 kinase activities was determined using a commercially available ADP-Glo™ Kinase Assay kit (Promega, Cat #V9102) according to the manufacturer's protocol.
(§1) Recombinant human HIPK2 (1-640) (expressed in Sf9 insect cells with an N-terminal GST tag) was purchased from SignalChem (Cat #H04-11BG). Recombinant full length human MBP (expressed in E. Coli cells with an N-terminal GST tag) was purchased from SignalChem (Cat #M42-54G). This assay, run in a 384-well plate format, is a generic method for measuring kinase activities using an ADP-Glo Kinase Assay Kit. The basic assay procedure involves two steps: (1) Enzymatic step: inhibitors are incubated with the kinase and then ATP (included in the ADP-Glo Kinase Assay Kit) and the MBP protein are added to start the enzymatic reaction; (2) Detection step: after the kinase reaction, first ADP-Glo™ Reagent is added to terminate the kinase reaction and deplete the remaining ATP. Second, the Kinase Detection Reagent is added to simultaneously convert ADP to ATP and allow the newly synthesized ATP to be measured using a luciferase/luciferin reaction. The light generated is measured using a luminometer.
(§2) Briefly, HIPK2 (1 nM) in the enzymatic buffer solutions (40 mM Tris, pH 7.5, 20 mM MgCl2, 0.1 mg/ml BSA, 50 μM DTT) were mixed with various concentrations of inhibitors (dissolved in 100% DMSO). These solutions were incubated for 30 minutes at 25° C., and subsequently a mixture of substrate peptide and ATP was added with the final peptide and ATP concentrations at 0.05 mg/ml and 5 μM, respectively. The final reaction mixture of enzyme-substrate-ATP-compound was incubated for 90 minutes at 25° C.
(§3) Afterwards ADP-Glo™ Reagent was added and the mixture was incubated at 25° C. for 60 minutes. Then Kinase Detection Reagent was added, and the final mixture was incubated at 25° C. for 60 minutes. The luminescence signal of the final solution was measured on an Envision instrument (PerkinElmer). The percent (%) inhibition at each concentration of a compound is calculated relative to the luminescence signal in the Max and Min control wells contained within each assay plate. […] The concentrations and percent inhibition values for a test compound are plotted and the concentration of the compound required to achieve 50% inhibition (IC50) is determined with a four-parameter logistic dose response equation.

human GSK3 beta = target: T2, human GSK3 beta (Homo sapiens, UniProt P49841); experiment: GSK3 beta enzyme assay (ADP-Glo); type: biochemical; conditions: ATP 25 μM, read-out: GSK3b IC50
T2 construct: Recombinant full-length human GSK3 beta (expressed in Sf9 insect cells with an N-terminal His tag); His (N); purchased SignalChem G09-10H; host or cells: Sf9 insect cells
T2 sequence (P49841 whole entry): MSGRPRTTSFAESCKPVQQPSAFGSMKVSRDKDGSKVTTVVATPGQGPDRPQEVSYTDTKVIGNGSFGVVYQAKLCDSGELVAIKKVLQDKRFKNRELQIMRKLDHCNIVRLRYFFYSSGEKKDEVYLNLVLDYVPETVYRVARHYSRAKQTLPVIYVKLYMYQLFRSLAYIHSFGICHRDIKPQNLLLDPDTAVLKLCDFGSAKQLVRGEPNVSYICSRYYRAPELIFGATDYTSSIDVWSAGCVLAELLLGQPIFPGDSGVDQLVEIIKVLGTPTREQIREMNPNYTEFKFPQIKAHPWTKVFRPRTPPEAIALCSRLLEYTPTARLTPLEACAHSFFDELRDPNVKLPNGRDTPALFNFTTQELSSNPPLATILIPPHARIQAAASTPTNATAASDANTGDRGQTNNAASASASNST
Description: 1. GSK3 Beta Enzyme Assay
The ability of compounds to inhibit human GSK3 beta kinase activities was determined using a commercially available ADP-Glo™ Kinase Assay kit (Promega, Cat #V9102) according to the manufacturer's protocol. The ADP-Glo™ Kinase Assay is a luminescent ADP detection assay that provides a universal, homogeneous, high-throughput screening method to measure kinase activity by quantifying the amount of ADP produced during a kinase reaction. The ADP-Glo™ Kinase Assay can be used to monitor the activity of virtually any ADP-generating enzymes (e.g., kinases or ATPases).
as §1, with “Recombinant full-length” for “Recombinant”, “GSK3 beta” for “HIPK2 (1-640)”, “His” for “GST”, “#G09-10H). The GSK3 substrate peptide (sequence: […](pS)EDEEE)” for “#H04-11BG). Recombinant full length human MBP (expressed in E. Coli cells with an N-terminal GST tag)”, “#G50-58).” for “#M42-54G).”, “GSK3 substrate peptide” for “MBP protein”
as §2, with “Briefly, GSK3 beta (4” for “Briefly, HIPK2 (1”, “at 13 μM” for “at 0.05 mg/ml”, “and 25” for “and 5”, “for 60” for “for 90”
as §3, with “added” for “added,”

T1 sequence (Q9H2X6 1-640): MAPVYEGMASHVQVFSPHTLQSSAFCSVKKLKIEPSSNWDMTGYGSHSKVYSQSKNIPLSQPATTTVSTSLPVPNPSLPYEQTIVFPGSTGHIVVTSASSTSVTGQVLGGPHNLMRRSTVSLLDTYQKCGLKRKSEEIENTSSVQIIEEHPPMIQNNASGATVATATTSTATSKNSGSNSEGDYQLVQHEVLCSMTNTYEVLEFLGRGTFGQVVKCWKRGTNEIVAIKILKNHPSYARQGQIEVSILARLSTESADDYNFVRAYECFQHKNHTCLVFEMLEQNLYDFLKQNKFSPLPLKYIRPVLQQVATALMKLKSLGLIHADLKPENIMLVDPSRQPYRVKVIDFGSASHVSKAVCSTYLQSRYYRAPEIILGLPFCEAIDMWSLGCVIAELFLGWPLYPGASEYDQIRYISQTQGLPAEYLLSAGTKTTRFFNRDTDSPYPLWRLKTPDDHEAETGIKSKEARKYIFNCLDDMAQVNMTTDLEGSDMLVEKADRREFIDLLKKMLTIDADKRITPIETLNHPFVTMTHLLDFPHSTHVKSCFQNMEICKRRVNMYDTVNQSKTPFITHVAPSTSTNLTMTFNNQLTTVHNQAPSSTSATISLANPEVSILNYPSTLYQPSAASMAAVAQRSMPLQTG

Row | Structure (SMILES) | IC50 (human HIPK2) [µM] | IC50 (human GSK3 beta) [µM]
1 | CN(C1=N/C(=C\c2ccc3c(c2)OCO3)C(=O)N1)c1ccccc1 [Example 1, (Z)-5-(benzo[d][1,3]dioxol-5-ylmethylene)-2-(methyl(phenyl)amino)-3,5-dihydro-4H-imidazol-4-one] | > 10 | 
2 | O=C1/C(=C/c2ccc3c(c2)OCO3)N=C(N(Cc2ccccc2)c2ccccc2)N1Cc1ccccc1 [Example 2, (Z)-5-(benzo[d][1,3]dioxol-5-ylmethylene)-3-benzyl-2-(benzyl(phenyl)amino)-3,5-dihydro-4H-imidazol-4-one] | > 10 | 
3 | CN1C(=O)/C(=C/c2ccc3c(c2)OCO3)N=C1N(C)c1ccccc1 [Example 3, (Z)-5-(benzo[d][1,3]dioxol-5-ylmethylene)-3-methyl-2-(methyl(phenyl)amino)-3,5-dihydro-4H-imidazol-4-one] | > 10 | 
4 | O=C1NC(Nc2ccccc2)=N/C1=C\c1ccc2ncsc2c1 [Example 6, (Z)-5-(benzo[d]thiazol-6-ylmethylene)-2-(phenylamino)-3,5-dihydro-4H-imidazol-4-one] | 0.1 to 1 | 0.1 to 1
5 | CN(C1=N/C(=C\c2ccc3ncsc3c2)C(=O)N1)c1ccccc1 [Example 7, (Z)-5-(benzo[d]thiazol-6-ylmethylene)-2-(methyl(phenyl)amino)-3,5-dihydro-4H-imidazol-4-one] | 1 to 10 | 1 to 10
6 | CN(C1=N/C(=C\c2ccc3c(c2)OCCO3)C(=O)N1)c1ccccc1 [Example 8, (Z)-5-((2,3-dihydrobenzo[b][1,4]dioxin-6-yl)methylene)-2-(methyl(phenyl)amino)-3,5-dihydro-4H-imidazol-4-one] | > 10 | > 10
7 | O=C1NC(Nc2ccccc2)=N/C1=C\c1ccc(=O)[nH]c1 [Example 9, (Z)-5-((5-oxo-2-(phenylamino)-1,5-dihydro-4H-imidazol-4-ylidene)methyl)pyridin-2(1H)-one] | > 10 | > 10
8 | O=C1NC(N(CC2CC2)c2ccccc2)=N/C1=C\c1ccc2c(c1)OCO2 [Example 10, (Z)-5-(benzo[d][1,3]dioxol-5-ylmethylene)-2-((cyclopropylmethyl)(phenyl)amino)-3,5-dihydro-4H-imidazol-4-one] | > 10 | > 10
9 | CN(CC1CC1)C1=N/C(=C\c2ccc3c(c2)OCO3)C(=O)N1 [Example 11, (Z)-5-(benzo[d][1,3]dioxol-5-ylmethylene)-2-((cyclopropylmethyl)(methyl)amino)-3,5-dihydro-4H-imidazol-4-one] | > 10 | > 10
10 | COc1ccc(N(C)C2=N/C(=C\c3ccc4c(c3)OCO4)C(=O)N2)cc1 [Example 12, (Z)-5-(benzo[d][1,3]dioxol-5-ylmethylene)-2-((4-methoxyphenyl)(methyl)amino)-3,5-dihydro-4H-imidazol-4-one] | > 10 | > 10
11 | O=C1NC(N(CCO)c2ccccc2)=N/C1=C\c1ccc2c(c1)OCO2 [Example 13, (Z)-5-(benzo[d][1,3]dioxol-5-ylmethylene)-2-((2-hydroxyethyl)(phenyl)amino)-3,5-dihydro-4H-imidazol-4-one] | 1 to 10 | 1 to 10
12 | O=C1NC(Nc2ccccc2)=N/C1=C\c1ccc2scnc2c1 [Example 14, (Z)-5-(benzo[d]thiazol-5-ylmethylene)-2-(phenylamino)-3,5-dihydro-4H-imidazol-4-one] | > 10 | > 10
13 | O=C1NC(Nc2ccccc2)=N/C1=C\c1cncs1 [Example 15, (Z)-2-(phenylamino)-5-(thiazol-5-ylmethylene)-3,5-dihydro-4H-imidazol-4-one] | > 10 | > 10
14 | O=C1NC(Nc2ccccc2)=N/C1=C\c1ccc2nccnc2c1 [Example 16, (Z)-2-(phenylamino)-5-(quinoxalin-6-ylmethylene)-3,5-dihydro-4H-imidazol-4-one] | 1 to 10 | 1 to 10
15 | CN(C1=N/C(=C\c2ccc3c(c2)OC(F)(F)O3)C(=O)N1)c1ccccc1 [Example 17, (Z)-5-((2,2-difluorobenzo[d][1,3]dioxol-5-yl)methylene)-2-(methyl(phenyl)amino)-3,5-dihydro-4H-imidazol-4-one] | > 10 | > 10
16 | CN(C1=N/C(=C\c2ccc3c(c2)OCO3)C(=O)N1)c1cccnc1 [Example 18, (Z)-5-(benzo[d][1,3]dioxol-5-ylmethylene)-2-(methyl(pyridin-3-yl)amino)-3,5-dihydro-4H-imidazol-4-one] | > 10 | > 10
17 | CN(CC1CC1)C1=N/C(=C\c2ccc3c(c2)OCCO3)C(=O)N1 [Example 19, (Z)-2-((cyclopropylmethyl)(methyl)amino)-5-((2,3-dihydrobenzo[b][1,4]dioxin-6-yl)methylene)-3,5-di hydro-4H-imidazol-4-one] | > 10 | > 10
18 | CN(CCN1CCOCC1)C1=N/C(=C\c2ccc3c(c2)OCO3)C(=O)N1 [Example 20, (Z)-5-(benzo[d][1,3]dioxol-5-ylmethylene)-2-(methyl(2-morpholinoethyl)amino)-3,5-dihydro-4H-imidazol-4-one] | > 10 | 1 to 10
19 | COc1ccccc1N(C)C1=N/C(=C\c2ccc3c(c2)OCO3)C(=O)N1 [Example 21, (Z)-5-(benzo[d][1,3]dioxol-5-ylmethylene)-2-((2-methoxyphenyl)(methyl)amino)-3,5-dihydro-4H-imidazol-4-one] | > 10 | > 10
20 | O=C1NC(N(Cc2ccccc2)c2ccccc2)=N/C1=C\c1ccc2c(c1)OCO2 [Example 22, (Z)-5-(benzo[d][1,3]dioxol-5-ylmethylene)-2-(benzyl(phenyl)amino)-3,5-dihydro-4H-imidazol-4-one] | > 10 | > 10
21 | CN(Cc1ccccc1)C1=N/C(=C\c2ccc3c(c2)OCO3)C(=O)N1 [Example 23, (Z)-5-(benzo[d][1,3]dioxol-5-ylmethylene)-2-(benzyl(methyl)amino)-3,5-dihydro-4H-imidazol-4-one] | > 10 | > 10
22 | CN(C1=N/C(=C\c2ccc3ncsc3c2)C(=O)N1)c1ccc(Cl)cc1 [Example 24, (Z)-5-(benzo[d]thiazol-6-ylmethylene)-2-((4-chlorophenyl)(methyl)amino)-3,5-dihydro-4H-imidazol-4-one] | 0.1 to 1 | > 10
23 | COc1ccc(NC2=N/C(=C\c3ccc4ncsc4c3)C(=O)N2)cc1 [Example 25, (Z)-5-(benzo[d]thiazol-6-ylmethylene)-2-((4-methoxyphenyl)amino)-3,5-dihydro-4H-imidazol-4-one] | 0.1 to 1 | > 10

Reference: patent US12643887B2, “Heterocyclic derivatives with cardiomyocyte proliferation activity for treatment of heart diseases” (Tongji University, priority 2019, dated 2026)
